# Measurements taken from patent publication US11046699B2, “Pyrazolo-pyrimidin-amino-cycloalkyl compounds and their therapeutic uses” (RAPT THERAPEUTICS, INC., priority 2018, dated 2021).
# Biological target: GCN2 (Homo sapiens, UniProt Q9P2K8)
# Assay: GCN2 enzymatic endpoint assay: phosphorylation of GFP-eIF2α measured by TR-FRET (Lanthascreen)
# Type: biochemical
# Details: tested as described in Example 77; compound and/or hydrochloride, dihydrochloride or trifluoroacetic acid salt; read-out: IC 50 Activity
# Outline: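 Kinase activity is measured as phosphorylation of GFP-labelled eIF2α (80 nM) with ATP at 2 μM. Incubation runs 90 minutes at room temperature before EDTA quench and terbium-antibody detection.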
# Sequence of GCN2 (Q9P2K8 whole entry): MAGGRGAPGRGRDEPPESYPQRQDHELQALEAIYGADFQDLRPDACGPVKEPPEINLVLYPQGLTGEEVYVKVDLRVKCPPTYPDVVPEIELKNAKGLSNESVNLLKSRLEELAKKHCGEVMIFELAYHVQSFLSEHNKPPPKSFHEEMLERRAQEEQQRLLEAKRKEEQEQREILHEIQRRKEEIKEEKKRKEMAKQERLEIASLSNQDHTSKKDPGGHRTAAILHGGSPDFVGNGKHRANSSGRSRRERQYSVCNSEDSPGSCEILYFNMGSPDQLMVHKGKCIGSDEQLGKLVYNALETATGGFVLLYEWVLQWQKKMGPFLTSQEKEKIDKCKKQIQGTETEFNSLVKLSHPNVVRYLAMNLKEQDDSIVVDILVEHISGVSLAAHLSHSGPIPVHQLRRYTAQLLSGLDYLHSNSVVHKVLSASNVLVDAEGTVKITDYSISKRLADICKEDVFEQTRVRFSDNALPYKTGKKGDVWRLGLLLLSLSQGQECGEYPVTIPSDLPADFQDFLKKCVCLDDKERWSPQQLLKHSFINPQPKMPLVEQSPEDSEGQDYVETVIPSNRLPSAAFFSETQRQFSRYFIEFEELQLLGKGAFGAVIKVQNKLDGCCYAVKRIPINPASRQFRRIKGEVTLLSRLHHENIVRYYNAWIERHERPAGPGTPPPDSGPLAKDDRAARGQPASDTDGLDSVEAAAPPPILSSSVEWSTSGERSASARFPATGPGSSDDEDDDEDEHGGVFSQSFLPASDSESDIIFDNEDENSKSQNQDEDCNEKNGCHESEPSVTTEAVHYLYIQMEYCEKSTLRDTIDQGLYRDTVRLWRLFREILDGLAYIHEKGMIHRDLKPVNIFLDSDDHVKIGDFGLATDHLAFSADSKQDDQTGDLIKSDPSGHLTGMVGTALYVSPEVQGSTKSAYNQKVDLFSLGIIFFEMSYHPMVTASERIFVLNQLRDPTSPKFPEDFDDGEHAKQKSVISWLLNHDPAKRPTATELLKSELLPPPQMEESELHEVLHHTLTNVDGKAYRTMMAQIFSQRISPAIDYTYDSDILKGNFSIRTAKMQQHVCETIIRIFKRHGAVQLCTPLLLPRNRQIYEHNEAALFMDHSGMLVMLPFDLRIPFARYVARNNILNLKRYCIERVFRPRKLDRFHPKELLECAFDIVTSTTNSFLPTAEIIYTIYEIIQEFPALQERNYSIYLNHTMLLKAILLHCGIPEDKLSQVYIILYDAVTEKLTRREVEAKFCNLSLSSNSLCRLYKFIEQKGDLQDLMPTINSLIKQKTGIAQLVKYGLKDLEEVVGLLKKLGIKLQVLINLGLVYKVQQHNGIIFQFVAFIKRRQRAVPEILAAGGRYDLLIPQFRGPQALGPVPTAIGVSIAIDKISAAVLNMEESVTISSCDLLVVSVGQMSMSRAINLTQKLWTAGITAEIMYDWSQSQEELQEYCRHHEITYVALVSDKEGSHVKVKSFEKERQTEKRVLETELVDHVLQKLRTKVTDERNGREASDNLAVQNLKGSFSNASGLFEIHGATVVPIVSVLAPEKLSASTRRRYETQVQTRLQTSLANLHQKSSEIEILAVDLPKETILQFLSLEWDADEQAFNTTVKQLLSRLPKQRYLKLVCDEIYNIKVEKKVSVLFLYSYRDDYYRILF
row,Compound,IC50
1,"CNC(=O)[C@]1(C)CC[C@@H](Nc2ncc3c(Br)nn(-c4cc(Cl)c(F)c(CO)c4)c3n2)C1 [(1R,3R)-3-[[3-bromo-1-[3-chloro-4-fluoro-5-(hydroxymethyl)phenyl]pyrazolo[3,4-d]pyrimidin-6-yl]amino]-N,1-dimethyl-cyclopentanecarboxamide]",25 to 200 nM
2,"CNC(=O)[C@]1(C)CC[C@@H](Nc2ncc3c(Br)nn(-c4cc(Cl)cc(CCO)c4)c3n2)C1 [(1R,3R)-3-[[3-bromo-1-[3-chloro-5-(2-hydroxyethyl)phenyl]pyrazolo [3,4-d]pyrimidin-6-yl]amino]-N,1-dimethyl-cyclopentanecarboxamide]",< 25 nM
3,"CNC(=O)[C@]1(C)CC[C@@H](Nc2ncc3c(Br)nn(-c4cc(Cl)cc(OCC(C)O)c4)c3n2)C1 (stereo partly drawn) [(1R,3R)-3-[[3-bromo-1-[3-chloro-5-(2-hydroxypropoxy)phenyl]pyrazolo[3,4-d]pyrimidin-6-yl]amino]-N,1-dimethyl-cyclopentanecarboxamide]",25 to 200 nM
4,"CNC(=O)[C@]1(C)CC[C@@H](Nc2ncc3c(Br)nn(-c4cc(Cl)cc(C5COC(=O)N5C)c4)c3n2)C1 (stereo partly drawn) [(1R,3R)-3-[[3-bromo-1-[3-chloro-5-(3-methyl-2-oxo-oxazolidin-4-yl)phenyl]pyrazolo[3,4-d]pyrimidin-6-yl]amino]-N,1-dimethyl-cyclopentanecarboxamide]",25 to 200 nM
5,"CNC(=O)[C@]1(C)CC[C@@H](Nc2ncc3c(Br)nn(-c4cc(Cl)cc(C5CNC(=O)CO5)c4)c3n2)C1 (stereo partly drawn) [(1R,3R)-3-[[3-bromo-1-[3-chloro-5-(5-oxomorpholin-2-yl)phenyl]pyrazolo [3,4-d]pyrimidin-6-yl]amino]-N,1-dimethyl-cyclopentanecarboxamide]",25 to 200 nM
6,"CNC(=O)[C@@H]1CC[C@@H](Nc2ncc3c(Br)nn(-c4cc(Cl)cc(CO)c4)c3n2)C1 [(1R,3R)-3-[[3-bromo-1-[3-chloro-5-(hydroxy-methyl)phenyl]pyrazolo[3,4-d]pyrimidin-6-yl]amino]-N-methyl-cyclopentanecarboxamide]",25 to 200 nM
7,"CNC(=O)[C@]1(C)CC[C@@H](Nc2ncc3c(Br)nn(-c4cc(Cl)cc(CNS(C)(=O)=O)c4)c3n2)C1 [(1R,3R)-3-[[3-bromo-1-[3-chloro-5-(methanesulfonamidomethyl)phenyl]pyrazolo[3,4-d]pyrimidin-6-yl]amino]-N,1-dimethyl-cyclopentanecarboxamide]",25 to 200 nM
8,"CNC(=O)[C@]1(C)CC[C@@H](Nc2ncc3c(Br)nn(-c4cc(Cl)cc(C(=O)N5CCNCC5)c4)c3n2)C1 [(1R,3R)-3-[[3-bromo-1-[3-chloro-5-(piperazine-1-carbonyl)phenyl]pyrazolo [3,4-d]pyrimidin-6-yl]amino]-N,1-dimethyl-cyclopentanecarboxamide]",25 to 200 nM
9,"CNC(=O)[C@]1(C)CC[C@@H](Nc2ncc3c(Br)nn(-c4cc(Cl)cc([C@@H]5COC(=O)N5)c4)c3n2)C1 [(1R,3R)-3-[[3-bromo-1-[3-chloro-5-[(4R)-2-oxooxazolidin-4-yl]phenyl]pyrazolo[3,4-d]pyrimidin-6-yl]amino]-N,1-dimethyl-cyclopentanecarboxamide]",< 25 nM
10,"CNC(=O)[C@]1(C)CC[C@@H](Nc2ncc3c(Br)nn(-c4cc(Cl)cc([C@H]5COC(=O)N5)c4)c3n2)C1 [(1R,3R)-3-[[3-bromo-1-[3-chloro-5-[(4S)-2-oxooxazolidin-4-yl]phenyl]pyrazolo[3,4-d]pyrimidin-6-yl]amino]-N,1-dimethyl-cyclopentanecarboxamide]",25 to 200 nM
11,"CNC(=O)[C@]1(C)CC[C@@H](Nc2ncc3c(Br)nn(-c4cc(C#N)cc(OCC(C)O)c4)c3n2)C1 (stereo partly drawn) [(1R,3R)-3-[[3-bromo-1-[3-cyano-5-(2-hydroxypropoxy)phenyl]pyrazolo [3,4-d]pyrimidin-6-yl]amino]-N,1-dimethyl-cyclopentanecarboxamide]",25 to 200 nM
12,"CNC(=O)[C@]1(C)CC[C@@H](Nc2ncc3c(Br)nn(-c4cc(C#N)cc(OCCOC)c4)c3n2)C1 [(1R,3R)-3-[[3-bromo-1-[3-cyano-5-(2-methoxyethoxy)phenyl]pyrazolo[3,4-d]pyrimidin-6-yl]amino]-N,1-dimethyl-cyclopentanecarboxamide]",25 to 200 nM
13,"CNC(=O)[C@]1(C)CC[C@@H](Nc2ncc3c(Br)nn(-c4cc(C#N)cc(CO)c4)c3n2)C1 [(1R,3R)-3-[[3-bromo-1-[3-cyano-5-(hydroxymethyl)phenyl]pyrazolo[3,4-d]pyrimidin-6-yl]amino]-N,1-dimethyl-cyclopentanecarboxamide]",25 to 200 nM
14,"CNC(=O)[C@@H]1CC[C@@H](Nc2ncc3c(Br)nn(-c4cc(F)c(-c5cccnc5)c(C#N)c4)c3n2)C1 [(1R,3R)-3-[[3-bromo-1-[3-cyano-5-fluoro-4-(3-pyridyl)phenyl]pyrazolo[3,4-d]pyrimidin-6-yl]amino]-N-methyl-cyclopentane-carboxamide]",25 to 200 nM
15,"CNC(=O)[C@]1(C)CC[C@@H](Nc2ncc3c(Br)nn(-c4ccc(-c5nnc(C)o5)c(F)c4)c3n2)C1 [(1R,3R)-3-[[3-bromo-1-[3-fluoro-4-(5-methyl-1,3,4-oxadiazol-2-yl)phenyl]pyrazolo[3,4-d]pyrimidin-6-yl]amino]-N,1-dimethyl-cyclopentanecarboxamide]",25 to 200 nM
16,"CNC(=O)[C@]1(C)CC[C@@H](Nc2ncc3c(Br)nn(-c4cc(F)cc(CO)c4)c3n2)C1 [(1R,3R)-3-[[3-bromo-1-[3-fluoro-5-(hydroxymethyl)phenyl]pyrazolo[3,4-d]pyrimidin-6-yl]amino]-N,1-dimethyl-cyclopentanecarboxamide]",25 to 200 nM
17,"CNC(=O)[C@]1(C)CC[C@@H](Nc2ncc3c(Br)nn(-c4ccc5c(c4)OCC(=O)N5CC(F)(F)F)c3n2)C1 [(1R,3R)-3-[[3-bromo-1-[3-oxo-4-(2,2,2-trifluoroethyl)-1,4-benzoxazin-7-yl]pyrazolo [3,4-d]pyrimidin-6-yl]amino]-N,1-dimethyl-cyclopentanecarboxamide]",25 to 200 nM
18,"CNC(=O)[C@]1(C)CC[C@@H](Nc2ncc3c(Br)nn(-c4ccc(-c5cnon5)cc4)c3n2)C1 [(1R,3R)-3-[[3-bromo-1-[4-(1,2,5-oxadiazol-3-yl)phenyl]pyrazolo[3,4-d]pyrimidin-6-yl]amino]-N,1-dimethyl-cyclopentane-carboxamide]",25 to 200 nM
19,"CNC(=O)[C@]1(C)CC[C@@H](Nc2ncc3c(Br)nn(-c4ccc(-c5nnco5)cc4)c3n2)C1 [(1R,3R)-3-[[3-bromo-1-[4-(1,3,4-oxadiazol-2-yl)phenyl]pyrazolo[3,4-d]pyrimidin-6-yl]amino]-N,1-dimethyl-cyclopentane-carboxamide]",25 to 200 nM
20,"CNC(=O)[C@]1(C)CC[C@@H](Nc2ncc3c(Br)nn(-c4ccc(-c5ccn(C)n5)cc4)c3n2)C1 [(1R,3R)-3-[[3-bromo-1-[4-(1-methyl-pyrazol-3-yl)phenyl]pyrazolo[3,4-d]pyrimidin-6-yl]amino]-N,1-dimethyl-cyclopentanecarboxamide]",25 to 200 nM

# Next, values leading:
row,IC50,Compound
1,25 to 200 nM,"CNC(=O)[C@]1(C)CC[C@@H](Nc2ncc3c(Br)nn(-c4cc(Cl)cc(C5CN(C)C(=O)CO5)c4)c3n2)C1 (stereo partly drawn) [(1R,3R)-3-[[3-bromo-1-[3-chloro-5-(4-methyl-5-oxo-morpholin-2-yl)phenyl]pyrazolo[3,4-d]pyrimidin-6-yl]amino]-N,1-dimethyl-cyclopentane-carboxamide]"
2,25 to 200 nM,"CNC(=O)[C@]1(C)CC[C@@H](Nc2ncc3c(Br)nn(-c4cc(Cl)cc(CC#N)c4)c3n2)C1 [(1R,3R)-3-[[3-bromo-1-[3-chloro-5-(cyanomethyl)phenyl]pyrazolo[3,4-d]pyrimidin-6-yl]amino]-N,1-dimethyl-cyclopentanecarboxamide]"
3,25 to 200 nM,"CNC(=O)[C@]1(C)CC[C@@H](Nc2ncc3c(Br)nn(-c4cc(Cl)cc(CS(C)(=O)=O)c4)c3n2)C1 [(1R,3R)-3-[[3-bromo-1-[3-chloro-5-(methylsulfonylmethyl)phenyl]pyrazolo [3,4-d]pyrimidin-6-yl]amino]-N,1-dimethyl-cyclopentanecarboxamide]"
4,< 25 nM,"CNC(=O)[C@]1(C)CC[C@@H](Nc2ncc3c(Br)nn(-c4cc(Cl)cc(OCC5(F)CNC5)c4)c3n2)C1 [(1R,3R)-3-[[3-bromo-1-[3-chloro-5-[(3-fluoroazetidin-3-yl)methoxy]phenyl]pyrazolo[3,4-d]pyrimidin-6-yl]amino]-N,1-dimethyl-cyclopentanecarboxamide]"
5,25 to 200 nM,"CNC(=O)[C@]1(CC(F)F)CC[C@@H](Nc2ncc3c(Br)nn(-c4ccc(-c5cccnc5)c(C#N)c4)c3n2)C1 [(1R,3R)-3-[[3-bromo-1-[3-cyano-4-(3-pyridyl)phenyl]pyrazolo[3,4-d]pyrimidin-6-yl]amino]-1-(2,2-difluoroethyl)-N-methyl-cyclopentanecarboxamide]"
6,25 to 200 nM,"CNC(=O)[C@]1(C)CC[C@@H](Nc2ncc3c(Br)nn(-c4cc(C#N)cc(OCCO)c4)c3n2)C1 [(1R,3R)-3-[[3-bromo-1-[3-cyano-5-(2-hydroxyethoxy)phenyl]pyrazolo[3,4-d]pyrimidin-6-yl]amino]-N,1-dimethyl-cyclopentanecarboxamide]"
7,25 to 200 nM,"CNC(=O)[C@]1(C)CC[C@@H](Nc2ncc3c(Br)nn(-c4cc(C#N)cc(OCC#N)c4)c3n2)C1 [(1R,3R)-3-[[3-bromo-1-[3-cyano-5-(cyanomethoxy)phenyl]pyrazolo[3,4-d]pyrimidin-6-yl]amino]-N,1-dimethyl-cyclopentanecarboxamide]"
8,< 25 nM,"CNC(=O)[C@]1(C)CC[C@@H](Nc2ncc3c(Br)nn(-c4cc(F)cc(CCO)c4)c3n2)C1 [(1R,3R)-3-[[3-bromo-1-[3-fluoro-5-(2-hydroxyethyl)phenyl]pyrazolo [3,4-d]pyrimidin-6-yl]amino]-N,1-dimethyl-cyclopentanecarboxamide]"
9,25 to 200 nM,"CNC(=O)[C@]1(C)CC[C@@H](Nc2ncc3c(Br)nn(-c4ccc(-n5cncn5)cc4)c3n2)C1 [(1R,3R)-3-[[3-bromo-1-[4-(1,2,4-triazol-1-yl)phenyl]pyrazolo[3,4-d]pyrimidin-6-yl]amino]-N,1-dimethyl-cyclopentane-carboxamide]"
